This is an account of results in paper PMC11477141, “Chemokine Receptor N-Terminus Charge Dictates Reliance on Post-Translational Modifications for Effective Ligand Capture and Following Boosting by Defense Peptides” (International Journal of Molecular Sciences, 2024).

Where no end group is shown, it is not given here.

The target in assay [1] is fully sulfated version of the CCR1 N-terminal peptide. On the set-up: method as in PMID 30567735. The conditions noted are these: read-out: affinity for the fully sulfated version of the CCR1 N-terminal peptide; cited from earlier work.
The subject of assay [2] is naked CCR5 N-terminus. Description: Fluorescence polarization binding to FAM-labeled CCR5 N-terminal peptide. On the set-up: species or system human. As to the method: Fluorescence polarization (FP) assay: The carboxyfluorescein (FAM)-labeled peptides representing the CCR1 and CCR5 N-termini functioned as the probes for quantifying the interaction between the receptor N-terminus and C21TP^81-111. The probe was diluted in FP buffer (1:3, PBS:MilliQ) and 10 µL was added to a final concentration of 250 nM per well in a black 384-well plate (Corning). The C21TP^81-111 peptide (2 mM) was diluted using a two-fold dilution series; 30 µL of the peptide was added to each well to final concentrations ranging from 12.21 nM to 100 µM. Blanks containing 10 µL probe and 30 µL FP buffer were included. The plate was spun down at 1000 rpm for 1 min and the FP signal was measured on a Flex station using SoftMax Pro software 7.0. Each experiment was conducted in triplicate. The binding curves were generated by plotting the FP signal, expressed as millipolarization units (mP), against C21TP^81-111 concentration. The dissociation constant (Kd) value was calculated using GraphPad Prism 9.
Probes: • CCR1: (5,6-FAM)-[…], • CCR5: (5,6-FAM)-ADYQVSSPIYDINYYTSEP.

“CCL5: human chemokine from Peprotech, overall basic”: the Kd in assay [1] was 100 nM. As for “RKDRGASKTGKKGKGSKGCKRTERSQTPKGP [C21TP^81-111]”, the “binding to the naked CCR5 N-terminus” value in assay [2] was “no such binding is observed”.
